US4178442A, “Novel cinnamoyles piperazines and homopiperazines, the method of preparing them and their application in therapeutics” (Delalande S. A., priority 1977, dated 1979)
Structures can show the parent of a compound that is named as a salt. Where two headings read alike, the source gives them in different places.

Experiments:
anaesthetized dog [1] = experiment: Activity on the peripheral circulation, anaesthetized dog; format: in vivo
Method: The activity on the peripheral circulation was studied on an anaesthetized dog (sodium pentobarbital 30 mg/kg/i.v.). The femoral artery flow was measured by means of an electromagnetic or ultrasonic perivascular Doppler effect probe.

anaesthetized dog [2] = experiment: Activity on the cerebral circulation, anaesthetized dog; format: in vivo; conditions: for change in vivo at 5 mg/kg / change in vivo at 2.5 mg/kg: Canis lupus familiaris, iv; for Increase of the extraction of cerebral oxygen: (A-V)/A
Method: The activity on the cerebral circulation was tested on an anaesthetized dog (sodium pentobarbital 30 mg/kg/i.v.). The vertebral artery flow was measured by means of an electromagnetic perivascular or ultrasonic Doppler effect probe. The intracerebral vascular resistance was estimated by the back pressure of the internal carotid artery. […] The increase in the extraction of cerebral oxygen was estimated by the following equation:(A-V)/A in which: A represents the volume of oxygen in the arterial blood (% volume) measured by hemoreflectometry (KIPP and ZONEN's apparatus) and quantity determination of the haemoglobin (DRABKIN's method). V represents the volume of oxygen in the cerebral venous blood (internal maxillary vein). […] It should be noted that the compounds tested were injected intravenously (rapid injection).

in vivo = conditions: iv, read-out: Toxicity: LD50
Description: *LD50 or percentage of mortality which is given between brackets

anaesthetized dog [3] = experiment: Antiangorous activity on anaesthetized dog: consumption of oxygen in the left ventricule and cardiac effort (KATZ's index); format: in vivo; conditions: 2.5 mg/kg i.v. slow perfusion; for inhibition in vivo at 2.5 mg/kg: Canis lupus familiaris, iv
Summary of the method: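 Katz index taken as mean arterial pressure multiplied by ECG (D2) heart rate, and myocardial O2 use as coronary sinus flow via modified Morawitz cannula times coronary arteriovenous O2 difference. Animals: pentobarbital-anaesthetized dogs (30 mg/kg i.v.), test compounds infused slowly intravenously.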

[4] = Canis lupus familiaris, iv, dog, 5 mg/kg i.v. slow perfusion, read-out: Average arterial pressure
[5] = Canis lupus familiaris, iv, dog, 5 mg/kg i.v. slow perfusion, read-out: Femoral artery flow
[6] = dog, 5 mg/kg i.v. slow perfusion
[7] = dog, 5 mg/kg i.v. rapid injection, read-out: Internal carotid artery back pressure
[8] = dog, 5 mg/kg i.v. rapid injection, read-out: Systemic average arterial pressure
[9] = dog, 5 mg/kg i.v. rapid injection, read-out: Vertebral artery flow
[10] = dog, 5 mg/kg i.v. rapid injection
[11] = read-out: Diminution in consumption of O2
[12] = read-out: Diminution in the cardiac effort (IK)
[13] = dog, 2,5 mg/kg i.v. rapid injection, read-out: Internal carotid artery back pressure
[14] = dog, 2,5 mg/kg i.v. rapid injection, read-out: Systemic average arterial pressure
[15] = dog, 2,5 mg/kg i.v. rapid injection
[16] = dog, 2,5 mg/kg i.v. slow perfusion

SMILES | change in vivo at 5 mg/kg (anaesthetized dog [1]; [4]) [%] | change in vivo at 5 mg/kg (anaesthetized dog [1]; [5]) [%] | Average arterial pressure: in time (anaesthetized dog [1]; [6]) [min] | Femoral artery flow: in time (anaesthetized dog [1]; [6]) [min] | change in vivo at 5 mg/kg (anaesthetized dog [2]; [7]) [%] | change in vivo at 5 mg/kg (anaesthetized dog [2]; [9]) [%] | Internal carotid artery back pressure: in time (anaesthetized dog [2]; [10]) [min] | Vertebral artery flow: in time (anaesthetized dog [2]; [10]) [min] | change in vivo at 2.5 mg/kg (anaesthetized dog [2]; [13]) [%] | change in vivo at 2.5 mg/kg (anaesthetized dog [2]; [14]) [%] | Internal carotid artery back pressure: in time (anaesthetized dog [2]; [15]) [min] | Systemic average arterial pressure: in time (anaesthetized dog [2]; [15]) [min] | Increase of the extraction of cerebral oxygen (anaesthetized dog [2]; [15]) | Vertebral artery flow: in time (anaesthetized dog [2]; [15]) [min] | further results
COc1cc(/C=C/C(=O)N2CCN(CC(O)COc3cccc(Cl)c3)CC2)cc(OC)c1OC (stereo not shown) [760 504] | -23 | 49 | 10 | 15 | – | – | – | – | – | – | – | – | – | – | –
COc1cc(/C=C/C(=O)N2CCN(CC(O)COc3ccc(C)cc3)CC2)cc(OC)c1OC (stereo not shown) [760 505] | -21 | 24 | 23 | 15 | -38 | 113 | 10 | 10 | – | – | – | – | – | – | change in vivo at 5 mg/kg (anaesthetized dog [2]; [8]): -11%; Systemic average arterial pressure: in time (anaesthetized dog [2]; [10]): 20 min
C=CCc1ccccc1OCC(O)CN1CCN(C(=O)/C=C/c2cc(OC)c(OC)c(OC)c2)CC1 (stereo not shown) [760 518] | – | – | – | – | -48 | 180 | 5 | 5 | – | – | – | – | – | – | change in vivo at 5 mg/kg (anaesthetized dog [2]; [8]): -15%; Systemic average arterial pressure: in time (anaesthetized dog [2]; [10]): 5 min
COc1cc(/C=C/C(=O)N2CCN(CC(O)COc3cccc(C)c3)CC2)cc(OC)c1OC (stereo not shown) [760 521] | -19 | 34 | 30 | 15 | – | – | – | – | – | – | – | – | – | – | –
COc1cc(/C=C/C(=O)N2CCN(CC(O)COc3cccc(C(C)=O)c3)CC2)cc(OC)c1OC (stereo not shown) [770 458] | – | – | – | – | – | – | – | – | -11 | -10 | 15 | 15 | +35% | – | LD50 (in vivo): 250 mg/kg; Diminution in consumption of O2: in time (anaesthetized dog [3]): 23 min; Diminution in the cardiac effort (IK): in time (anaesthetized dog [3]): 15 min; inhibition in vivo at 2.5 mg/kg (anaesthetized dog [3]; [11]): 72%; inhibition in vivo at 2.5 mg/kg (anaesthetized dog [3]; [12]): 25%
COc1cc(/C=C/C(=O)N2CCN(CC(O)CN(C)c3ccccc3)CC2)cc(OC)c1OC (stereo not shown) [770 495, 1-(3-N-methylanilino-2-hydroxy)propyl-4-(3,4,5-trimethoxycinnamoyl)piperazine, hydrated oxalate] | – | – | – | – | – | – | – | – | -17 | -20 | 60 | 20 | +188% | 60 | LD50 (in vivo): 175 mg/kg; Diminution in consumption of O2: in time (anaesthetized dog [3]): 45 min; Diminution in the cardiac effort (IK): in time (anaesthetized dog [3]): 30 min; inhibition in vivo at 2.5 mg/kg (anaesthetized dog [3]; [11]): 74%; inhibition in vivo at 2.5 mg/kg (anaesthetized dog [3]; [12]): 43%
C(=C\c1ccccc1)/CN1CCN(C(c2ccccc2)c2ccccc2)CC1 [Cinnarizine, cinnarizine, reference compound] | – | 100 | – | 30 | -25 | 130 | 30 | 30 | – | – | – | – | – | – | Increase of the extraction of cerebral oxygen (anaesthetized dog [2]; [10]): 0%
CCN(CC)CCOC(=O)C(Cc1cccc2ccccc12)CC1CCCO1 (stereo not shown) [Naphtidrofuryl, naphtidrofuryl, reference compound] | – | – | – | – | – | – | – | – | -26 | -50 | 5 | 2 | -50% | 5 | change in vivo at 2.5 mg/kg (anaesthetized dog [1]; Canis lupus familiaris, iv, dog, 2,5 mg/kg i.v. slow perfusion, read-out: Average arterial pressure): -50%; change in vivo at 2.5 mg/kg (anaesthetized dog [1]; Canis lupus familiaris, iv, dog, 2,5 mg/kg i.v. slow perfusion, read-out: Femoral artery flow): 100%; Average arterial pressure: in time (anaesthetized dog [1]; [16]): 2 min; Femoral artery flow: in time (anaesthetized dog [1]; [16]): 5 min; change in vivo at 2.5 mg/kg (anaesthetized dog [2]; dog, 2,5 mg/kg i.v. rapid injection, read-out: Vertebral artery flow): 100%
COc1ccc(Cc2nccc3cc(OC)c(OC)cc23)cc1OC [Papaverine, papaverine, reference compound] | – | – | – | – | – | – | – | – | – | – | 5 | – | 0% | 6 | change in vivo at 2 mg/kg (anaesthetized dog [1]; Canis lupus familiaris, iv, read-out: Femoral artery flow): 100%; Femoral artery flow: in time (anaesthetized dog [1]; dog, 2 mg/kg i.v. slow perfusion): 1 min; change in vivo at 2.5 mg/kg (anaesthetized dog [2]; read-out: Internal carotid artery back pressure): -45%; change in vivo at 2.5 mg/kg (anaesthetized dog [2]; read-out: Vertebral artery flow): 100%
